Assay results from US20110021505A1, “Use of sulfonyl-substituted 2-sulfonylaminobenzoic acid N-phenylamides in the treatment of pain” (SANOFI-AVENTIS DEUTSCHLAND GMBH, priority 2007, published 2011).

Tested on: tactile allodynia induced in a hind paw by surgical lesion of the sciatic nerve
Test: Anti-allodynic effect in the spared nerve injury (SNI) model of neuropathic pain in mice after oral administration
Format: in vivo, male C57B6 mice
Conditions: for Mean PWT (paw withdrawal threshold) ± SEM / DeltaAUC1 h-6 h of PWL (mean ± SEM): N=4; for Statistical evaluation vs. control (DeltaAUC1 h-6 h): 1-way ANOVA & Dunnett; for DeltaAUC1 h-6 h of PWL (mean ± SEM): AUC contralateral minus ipsilateral paws, 1 h to 6 h after administration
Procedure: In this in vivo mouse model of chronic neuropathic pain the effect on tactile allodynia, a painful sensation after a normally not painful mechanical stimulus, which had been induced in a hind paw by surgical lesion of the sciatic nerve, was determined by measuring the paw withdrawal threshold (PWT), i.e. the exerted force (expressed in grams) at which the mouse withdrew its hind paw.
Tactile allodynia was determined at both hind paws, i.e. ipsilateral and contralateral to the lesion if determined subsequent to surgery, with the automatic von Frey test in which the plantar skin of the hind paws was exposed to a pressure stimulus of increasing intensity up to 5 grams using a dump needle stick. The force in grams at which the animal responded withdrawal of the hind paw (paw withdrawal threshold, PWT), was used as a measure of tactile allodynia.
Two test groups and one control group of animals were used each consisting of four male C57B6 mice. In all groups, baseline PWT values (BL) were determined before surgery. For induction of neuropathic pain then, under general anesthesia, in all groups the two major branches of the sciatic nerve were ligated and transected, with the sural nerve left intact (spared nerve injury, SNI). In this model of neuropathic pain, tactile allodynia developed completely within two days after nerve transection in the hind paw ipsilateral to the lesion and remained stable in the control group over the complete observation period of the experiment.
7 days after surgery, immediately before administration of the test compound, i.e. at the time 0 h, in all groups PWT values were determined for the injured ipsilateral hind paw and the non-injured contralateral hind paw. Then either the test compound or vehicle was administered to the animals orally by gavage. In the test groups, mice received 100 μl/10 g body weight of a suspension of the test compound in vehicle MC/T80 comprising 0.3 mg/ml or 3 mg/ml (prepared as described in pharmaceutical example A) for attaining a dosage of 3 mg/kg body weight and 30 mg/kg body weight, respectively. In the control group, mice analogously received 100 μl/10 g body weight of vehicle MC/T80. 1 h, 2 h, 4 h and 6 h after administration, PWT values were determined.
The given PWT values (in grams) are the mean±SEM (standard error of the mean) of the PWT measurements performed with the ipsilateral hind paw and the contralateral hind paw, respectively, of each animal of the indicated group (N (number of animals)=4) at the time points 0 h (i.e. before administration of test compound or vehicle) and 1 h, 2 h, 4 h and 6 h after administration of test compound or vehicle, as well as the baseline PWT values (BL) determined before surgery.
For the statistical analysis, PWT values were used in two ways, first with a 2-way ANOVA test based on the PWT values and second with a 1-way ANOVA test based on area under the curve (AUC) values for the time period of 6 h after application of the test compound or vehicle. A repeated measures 2-way ANOVA test (factor treatment and repeated measures factor time) was performed on PWT measurements. In case the interaction (treatment×time) was statistically significant, a Winer complementary analysis was done to investigate the effect of treatment for each time point. A Dunnett's test was used to study the potential differences between the control group and the test groups.
As a quantitative measure of the efficacy of a test compound over an extended time period, the area under the curve (AUC) of the individual PWT values for the time period from 1 h to 6 h after administration of test compound or vehicle (AUC1 h-6 h) was determined for the ipsilateral paws of each group and the obtained value subtracted from the value determined for the contralateral paws of the same group to give DeItaAUC1 h-6 h values for each group. […]

`O=C(Nc1ccc(S(=O)(=O)N2CCOCC2)cc1)c1cc(Cl)ccc1NS(=O)(=O)c1ccc(Cl)s1.[Na]` [Example 94, 5-Chloro-2-(5-chloro-thiophene-2-sulfonylamino)-N-(4-(morpholine-4-sulfonyl)-phenyl)-benzamide sodium salt] was tested, and the “Mean PWT (paw withdrawal threshold) ± SEM” value (3 mg/kg body weight group, BL baseline before surgery) was 4.75 grams, the “Mean PWT (paw withdrawal threshold) ± SEM” value (3 mg/kg body weight group, injured ipsilateral paw, 0 h (before administration)) was 1.58 grams and the “Mean PWT (paw withdrawal threshold) ± SEM” value (3 mg/kg body weight group, non-injured contralateral paw, 0 h (before administration)) was 4.84 ± 0.11 grams. For the same compound, the “Statistical evaluation vs. control (DeltaAUC1 h-6 h)” value (3 mg/kg body weight oral) was “*** (significant, p < 0.0001 (ANOVA & Dunnett))”, the “DeltaAUC1 h-6 h of PWL (mean ± SEM)” value (3 mg/kg body weight oral) was 4.60 ± 1.20 and the “Anti-allodynic effect on PWT vs. control (2-way ANOVA, Dunnett)” value (3 mg/kg body weight oral, from 1 h to 4 h after administration) was “Statistically significant ant-allodynic effects”. The “Mean PWT (paw withdrawal threshold) ± SEM” value (3 mg/kg body weight oral, injured ipsilateral paw, 1 h after administration) was 2.96 grams, the “Mean PWT (paw withdrawal threshold) ± SEM” value (3 mg/kg body weight oral, injured ipsilateral paw, 2 h after administration) was 4.64 ± 0.11 grams and the “Mean PWT (paw withdrawal threshold) ± SEM” value (3 mg/kg body weight oral, injured ipsilateral paw, 4 h after administration) was 4.12 ± 0.17 grams. For the same compound, the “Mean PWT (paw withdrawal threshold) ± SEM” value (3 mg/kg body weight oral, injured ipsilateral paw, 6 h after administration) was 2.50 ± 0.40 grams, the “Mean PWT (paw withdrawal threshold) ± SEM” value (3 mg/kg body weight oral, non-injured contralateral paw, 1 h after administration) was 4.66 ± 0.14 grams and the “Mean PWT (paw withdrawal threshold) ± SEM” value (3 mg/kg body weight oral, non-injured contralateral paw, 2 h after administration) was 4.95 ± 0.02 grams. For the same compound, the “Mean PWT (paw withdrawal threshold) ± SEM” value (3 mg/kg body weight oral, non-injured contralateral paw, 4 h after administration) was 4.61 ± 0.13 grams, the “Mean PWT (paw withdrawal threshold) ± SEM” value (3 mg/kg body weight oral, non-injured contralateral paw, 6 h after administration) was 4.82 grams and the “Mean PWT (paw withdrawal threshold) ± SEM” value (30 mg/kg body weight group, BL baseline before surgery) was 4.70 grams. The “Mean PWT (paw withdrawal threshold) ± SEM” value (30 mg/kg body weight group, injured ipsilateral paw, 0 h (before administration)) was 1.91 grams, the “Mean PWT (paw withdrawal threshold) ± SEM” value (30 mg/kg body weight group, non-injured contralateral paw, 0 h (before administration)) was 4.69 ± 0.23 grams and the “Statistical evaluation vs. control (DeltaAUC1 h-6 h)” value (30 mg/kg body weight oral) was “*** (significant, p < 0.0001 (ANOVA & Dunnett))”. For the same compound, the “DeltaAUC1 h-6 h of PWL (mean ± SEM)” value (30 mg/kg body weight oral) was 1.52 ± 0.94, the “Anti-allodynic effect on PWT vs. control (2-way ANOVA, Dunnett)” value (30 mg/kg body weight oral, from 1 h to 6 h after administration) was “Statistically significant ant-allodynic effects” and the “Mean PWT (paw withdrawal threshold) ± SEM” value (30 mg/kg body weight oral, injured ipsilateral paw, 1 h after administration) was 3.70 grams. For the same compound, the “Mean PWT (paw withdrawal threshold) ± SEM” value (30 mg/kg body weight oral, injured ipsilateral paw, 2 h after administration) was 4.66 ± 0.10 grams, the “Mean PWT (paw withdrawal threshold) ± SEM” value (30 mg/kg body weight oral, injured ipsilateral paw, 4 h after administration) was 4.51 ± 0.17 grams and the “Mean PWT (paw withdrawal threshold) ± SEM” value (30 mg/kg body weight oral, injured ipsilateral paw, 6 h after administration) was 4.24 ± 0.08 grams. The “Mean PWT (paw withdrawal threshold) ± SEM” value (30 mg/kg body weight oral, non-injured contralateral paw, 1 h after administration) was 4.82 ± 0.10 grams, the “Mean PWT (paw withdrawal threshold) ± SEM” value (30 mg/kg body weight oral, non-injured contralateral paw, 2 h after administration) was 4.84 ± 0.10 grams and the “Mean PWT (paw withdrawal threshold) ± SEM” value (30 mg/kg body weight oral, non-injured contralateral paw, 4 h after administration) was 4.70 ± 0.19 grams. For the same compound, the “Mean PWT (paw withdrawal threshold) ± SEM” value (30 mg/kg body weight oral, non-injured contralateral paw, 6 h after administration) was 4.55 grams and the “Improvement of DeltaAUC1 h-6 h over vehicle control (1-way ANOVA)” value (both dosages, 3 mg/kg and 30 mg/kg body weight oral) was “significant improvement over the control group”.
